Results as given in US20030017186A1, “Carboxylic acid fluorides as pesticides” (priority 1999, published 2003).

Legend:
[1] = tested on: House longhorn beetle (Hylotrupes bajulus); test: Fumigation test in glass vessel, house longhorn beetles; type: in vivo
[2] = tested on: House longhorn beetle (Hylotrupes bajulus) larvae; test: Fumigation test in glass vessel, house longhorn beetle larvae in wood blocks; type: in vivo; settings: HYLOBA larvae in wood blocks
[3] = tested on: Common furniture beetle (Anobium punctatum) larvae; test: Fumigation test in glass vessel, common furniture beetle larvae in wood blocks; type: in vivo; settings: ANOBPU larvae in wood blocks
[4] = tested on: Mealworm beetle (Tenebrio molitor); test: Fumigation test in glass vessel, mealworm beetles; type: in vivo; settings: TENEMO beetles
[5] = tested on: Rice weevil (Sitophilus oryzae); test: Fumigation test in glass vessel, rice weevils; type: in vivo; settings: SITTOR beetles
[6] = tested on: Broad-horned flour beetle (Gnathocerus cornutus); test: Fumigation test in glass vessel, broad-horned flour beetles; type: in vivo; settings: GNATCO beetles
[7] = tested on: Broad-horned flour beetle (Gnathocerus cornutus) larvae; test: Fumigation test in glass vessel, broad-horned flour beetle larvae; type: in vivo; settings: GNATCO larvae
[8] = tested on: Saw-toothed grain beetle (Oryzaephilus surinamensis); test: Fumigation test in glass vessel, saw-toothed grain beetles; type: in vivo; settings: ORYZSA beetles
[9] = tested on: wood pests (house longhorn beetle, common furniture beetle); test: Fumigation test, wood pests; type: in vivo, Hylotrupes bajulus, Anobium punctatum
Excerpt: (§1) The test organisms, separated by species, were placed into a glass vessel measuring 30 cm×30 cm×60 cm, which was sealed with a glass lid so as to be airtight. The adults and the larvae of the mealworm beetle (Tenebrio molitor) and the broad-horned flour beetle (Gnathocerus cornutus) were placed into small glass vessels approximately 5 cm in diameter, which were closed with a gauze lid and in which they could freely move about. The larvae of the rice weevil had burrowed into seeds of grain. The wood pest larvae were inserted into small blocks of wood measuring 5 cm×2.5 cm×2 cm. The openings were sealed with wads of cotton wool. Only one each of the larvae of the house longhorn beetle (Hylotrupes bajulus) was inserted into a piece of wood, while 6-8 larvae of the common furniture beetle (Anobium punctatum) were inserted into each piece of wood.
(§2) The respective gas was then introduced into the fumigation vessel through a gas line from a gas tank that contained the specified amount of gas. After a defined time period, the fumigation vessel was purged with compressed air. The discharged gas was purified by an attached gas scrubber.
(§3) The beetles were observed until they died. This point was recorded for each species. The larvae of the wood pests as well as the larvae of the rice weevil (Sitophilus oryzae) had to be picked out of the wood or the grain to check their condition. If any of the animals were still alive, the wooden test blocks remaining in the vessel were fumigated again and were reexamined after the corresponding time span had elapsed. The same number of animals in the untreated control was also checked at each point.
(§4) The vitality of the animals was checked at certain time intervals. The beetles could be observed through the fumigation vessel. This was also true for the larvae of the mealworm beetle and the broad-horned flour beetle. The wooden test blocks of the wood pest larvae were opened with hammer and chisel. Tweezers were used to pull the rice weevil larvae out of the grain seeds. The exact time intervals and the number of the evaluated pests were documented in the test results.

[10] = tested on: wood and storage pests; test: Fumigation test, wood and storage pests (overall statements); type: in vivo
Excerpt: as §1, §2, §3, §4

[11] = tested on: termites; test: Termite control fumigation test (overall statements); type: in vivo, Cryptotermes brevis, Incisitermes tabogae; settings: Example 6
Excerpt: c) American drywood termites (Cryptotermes brevis)=CRYPBR, and Incisitermes tabogae=INCITA
as §1, §2, §3
as §4, with “The wooden test blocks of the wood pest larvae were opened with hammer and chisel. Tweezers were used to pull the rice weevil larvae out of the grain seeds.” left out

[12] = HYLOBA beetles, Example 5, ACF 50.6/48.2/51.4 g/m^3, SF 47.4/44.6/41 g/m^3 (1st/2nd/3rd fumigation), 23/23/22° C.
[13] = HYLOBA beetles, Example 7, ACF 53.0/54.6/0 g/m^3, second gas (SF) 43.6/41.4/39.8 g/m^3 (1st/2nd/3rd fumigation), 20.0/20.2/19.8 C.
[14] = Example 5, ACF 50.6/48.2/51.4 g/m^3, SF 47.4/44.6/41 g/m^3 (1st/2nd/3rd fumigation), 23/23/22° C.
[15] = Example 7, ACF 53.0/54.6/0 g/m^3, second gas (SF) 43.6/41.4/39.8 g/m^3 (1st/2nd/3rd fumigation), 20.0/20.2/19.8 C.
[16] = Example 4, gas 36.5 g/m^3, 19.3° C., 54% rel. air humidity

**Q.** For CC(=O)F [ACF, acetyl fluoride], which “Time after which the house longhorn beetles were dead” value ([1]; Example 4, 3 house longhorn beetles, gas 36.5 g/m^3, 19.3° C.) is on record?
**A.** 15 min

**Q.** And the “Number alive, 30 min. after Start of Fumigation” value [1, 12]?
**A.** 0

**Q.** What about the “Number dead, 30 min. after Start of Fumigation” value (shortened to “Number dead, 30 min. after Start”) [1, 12] of the same compound?
**A.** 4

**Q.** What about the “Number alive, 30 min. after 1st Fumigation” value [1, 13] of the same compound?
**A.** 3

**Q.** What about the “Number alive, 1 hr. after 1st Fumigation” value [1, 13] of the same compound?
**A.** 0

**Q.** And the “Number dead, 30 min. after 1st Fumigation” value [1, 13]?
**A.** 3

**Q.** And the “Number dead, 1 hr. after 1st Fumigation” value [1, 13]?
**A.** 6

**Q.** And the “Number alive, 1 hr. after Start of Fumigation” value (“Number alive, 1 hr. after Start” for short) [2, 14]?
**A.** 0

**Q.** And the “Number alive, 3 hrs. after Start of Fumigation” value [2, 14]?
**A.** 1

**Q.** And the “Number alive, 6 hrs after Start of Fumigation” value [2, 14]?
**A.** 0

**Q.** What about the “Number dead, 1 hr. after Start of Fumigation” value (“Number dead, 1 hr. after Start” below) [2, 14] of the same compound?
**A.** 4

**Q.** And the “Number dead, 3 hrs. after Start of Fumigation” value [2, 14]?
**A.** 2

**Q.** And the “Number dead, 6 hrs after Start of Fumigation” value [2, 14]?
**A.** 7

**Q.** What about the “Number alive, 1 hr. after 1st Fumigation” value [2, 15] of the same compound?
**A.** 2

**Q.** What about the “Number alive, 3 hrs. after 1st Fumigation” value [2, 15] of the same compound?
**A.** 0

**Q.** What about the “Number dead, 1 hr. after 1st Fumigation” value [2, 15] of the same compound?
**A.** 3

**Q.** What about the “Number dead, 3 hrs. after 1st Fumigation” value [2, 15] of the same compound?
**A.** 10

**Q.** What about the “Number alive, 1 hr. after Start” value [3, 14] of the same compound?
**A.** 1

**Q.** And the “Number alive, 3 hrs. after Start of Fumigation” value [3, 14]?
**A.** 2

**Q.** What about the “Number alive, 6 hrs after Start of Fumigation” value [3, 14] of the same compound?
**A.** 0

**Q.** And the “Number dead, 1 hr. after Start” value [3, 14]?
**A.** 3

**Q.** What about the “Number dead, 3 hrs. after Start of Fumigation” value [3, 14] of the same compound?
**A.** 2

**Q.** What about the “Number dead, 6 hrs after Start of Fumigation” value [3, 14] of the same compound?
**A.** 8

**Q.** And the “Number alive, 1 hr. after 1st Fumigation” value [3, 15]?
**A.** 5

**Q.** And the “Number alive, 3 hrs. after 1st Fumigation” value [3, 15]?
**A.** 2

**Q.** What about the “Number alive, 6 hrs after 1st Fumigation” value [3, 15] of the same compound?
**A.** 4

**Q.** What about the “Number dead, 1 hr. after 1st Fumigation” value [3, 15] of the same compound?
**A.** 1

**Q.** And the “Number dead, 3 hrs. after 1st Fumigation” value [3, 15]?
**A.** 4

**Q.** What about the “Number dead, 6 hrs after 1st Fumigation” value [3, 15] of the same compound?
**A.** 2

**Q.** And the “Number alive, 1 hr. after Start” value [4, 16]?
**A.** 0

**Q.** What about the “Number dead, 1 hr. after Start” value [4, 16] of the same compound?
**A.** 10

**Q.** And the “Number alive, 30 min. after Start of Fumigation” value [4, 14]?
**A.** 0

**Q.** And the “Number dead, 30 min. after Start” value [4, 14]?
**A.** 10

**Q.** And the “Number alive, 30 min. after 1st Fumigation” value [4, 15]?
**A.** 0

**Q.** And the “Number dead, 30 min. after 1st Fumigation” value [4, 15]?
**A.** 10

**Q.** And the “Number alive, 1 hr. after Start” value [5, 16]?
**A.** 0

**Q.** What about the “Number dead, 1 hr. after Start” value [5, 16] of the same compound?
**A.** 25

**Q.** And the “Number alive, 30 min. after Start of Fumigation” value [5, 14]?
**A.** 0

**Q.** And the “Number dead, 30 min. after Start” value [5, 14]?
**A.** 15

**Q.** And the “Number alive, 30 min. after 1st Fumigation” value [5, 15]?
**A.** 0

**Q.** What about the “Number dead, 30 min. after 1st Fumigation” value [5, 15] of the same compound?
**A.** 15

**Q.** What about the “Number alive, 1 hr. after Start” value [6, 16] of the same compound?
**A.** 13

**Q.** What about the “Number alive, 2 hrs. after Start of Fumigation” value [6, 16] of the same compound?
**A.** 3

**Q.** And the “Number alive, 12 hrs. after Start of Fumigation” value [6, 16]?
**A.** 0

**Q.** What about the “Number dead, 1 hr. after Start” value [6, 16] of the same compound?
**A.** 12

**Q.** What about the “Number dead, 2 hrs. after Start of Fumigation” value [6, 16] of the same compound?
**A.** 22

**Q.** What about the “Number dead, 12 hrs. after Start of Fumigation” value [6, 16] of the same compound?
**A.** 25

**Q.** And the “Number alive, 30 min. after Start of Fumigation” value [6, 14]?
**A.** 0

**Q.** And the “Number dead, 30 min. after Start” value [6, 14]?
**A.** 15

**Q.** And the “Number alive, 30 min. after 1st Fumigation” value [6, 15]?
**A.** 0

**Q.** And the “Number dead, 30 min. after 1st Fumigation” value [6, 15]?
**A.** 15

**Q.** And the “Number alive, 1 hr. after Start” value [7, 16]?
**A.** 0

**Q.** What about the “Number dead, 1 hr. after Start” value [7, 16] of the same compound?
**A.** 25

**Q.** What about the “Number alive, 30 min. after Start of Fumigation” value [7, 14] of the same compound?
**A.** 0

**Q.** And the “Number dead, 30 min. after Start” value [7, 14]?
**A.** 15

**Q.** And the “Number alive, 30 min. after 1st Fumigation” value [7, 15]?
**A.** 0

**Q.** What about the “Number dead, 30 min. after 1st Fumigation” value [7, 15] of the same compound?
**A.** 15

**Q.** And the “Number alive, 1 hr. after Start” value [8, 16]?
**A.** 0

**Q.** And the “Number dead, 1 hr. after Start” value [8, 16]?
**A.** 25

**Q.** And the “Number alive, 30 min. after Start of Fumigation” value [8, 14]?
**A.** 0

**Q.** And the “Number dead, 30 min. after Start” value [8, 14]?
**A.** 15

**Q.** What about the “Number alive, 30 min. after 1st Fumigation” value [8, 15] of the same compound?
**A.** 0

**Q.** And the “Number dead, 30 min. after 1st Fumigation” value [8, 15]?
**A.** 15

**Q.** And the “Effectiveness against wood pests” value ([9]; Conclusion, especially at temperatures in excess of 20° C.)?
**A.** very effective

**Q.** What about the “Condition of the larvae of the wood pests after 24 hours” value ([9]; Example 4, house longhorn beetle larvae and 2 common furniture beetle larvae, gas 36.5 g/m^3, 19.3° C., evaluated only after 24 hours) of the same compound?
**A.** dead

**Q.** And the “Effectiveness against exposed beetles and larvae” value ([10]; Conclusion of Examples 1-5)?
**A.** very effective

**Q.** What about the “Comparison of action on wood and storage pests” value ([10]; Example 7, against several of the pest species tested) of the same compound?
**A.** superior to chlorodifluoroacetyl fluoride

**Q.** And the “Effectiveness against termites in comparison test” value ([11]; compared with SO2F2)?
**A.** as effective as SO2F2

**Q.** And the “Speed of effect on termites in wood” value ([11]; compared with sulfuryl fluoride, penetrates wood more quickly)?
**A.** slightly faster effect
